The target in this test is T1, human indoleamine 2,3-dioxygenase 1 (hIDO1) (Homo sapiens, UniProt P14902).
T1 construct: up-regulate the expression of endogenous IDO1 under the induction of human IFN-γ; endogenous in cells; host or cells: HeLa cells stimulated with human IFN-γ
In words: Inhibitory activity test at cellular level: IFN-γ-induced HeLa cells, kynurenine colour reaction. To be noted: 48 hours; for inhibition at 0.1 µM: 50 ng/ml human IFN-γ, 200 μM L-tryptophan, each test compound 100 nM, read-out: hIDO1-cell base inhibition rate (%); for pEC50: human IFN-γ, read-out: hIDO1-cell base EC50. The class given is cell-based. The text has this: The subject of this assay was to comprehensively evaluate different compounds on their enzymatic inhibitory activity in vitro and on cell models against human indoleamine 2,3-dioxygenase 1 (hIDO1).
In the present application, the inventors used Hela cells expressing IDO1 induced by IFN-γ as a model, to test the IDO1 inhibitory activity of the compounds at the cellular level.
HeLa cells are human cervical cancer cell lines, which can up-regulate the expression of endogenous IDO1 under the induction of human IFN-γ. By adding the substrate L-tryptophan to cell culture medium, the enzymatic catalysis product kynurenine in cell supernatant was detected. In this experiment, the cultured Hela cells were used and co-incubated with different concentrations of test compounds under stimulation of human IFN-γ for a specified period of time, and the color reaction method of enzyme product and p-dimethylaminobenzaldehyde was used to detect the effect on IDO enzyme activity of cells treated by the test compounds.
(1) Hela cells were inoculated into 96-well culture plates at an appropriate concentration (about 20,000 cells/well). […] The cells were continuously cultured for 48 hours before detection.
(2) 200 μL of the supernatant in the culture well was pipetted out, added with 40 μL of the pre-prepared 30% (w/v) trichloroacetic acid solution, and reacted at 65° C. for 20 minutes, and then centrifuged at 12000 rpm for 15 minutes.
(3) 100 μL of the supernatant after centrifugation was pipetted out, added into a 96-well flat bottom plate, then added with an equal volume of 2% p-dimethylaminobenzaldehyde in glacial acetic acid and mixed well, and stood at room temperature for 10 minutes.
(4) microplate reader (ELX800NB) was used to detect the absorbance value of each well, and the detection wavelength was 492 nm.
In addition, after the cell enzyme activity inhibition rates of test compounds with different concentration gradients were separately calculated, their cell enzyme activity half inhibition concentrations (EC50) were calculated by using EC50 calculator.
According to the above-mentioned experimental method, the compounds of the present application were subjected to IDO1 enzymatic evaluation at cytological level (the concentration of each test compound was all 100 nM).
According to the above-mentioned experimental method, the compound of the present application was subjected to hIDO1-cell base EC50 detection.

In general, inhibition refers to the drop in the measured response relative to a control, in per cent. The pEC50 is the negative decadic logarithm of the EC50, by convention in mol/L.

pEC50: −log10 of the molar value.

T1 sequence (P14902 whole entry): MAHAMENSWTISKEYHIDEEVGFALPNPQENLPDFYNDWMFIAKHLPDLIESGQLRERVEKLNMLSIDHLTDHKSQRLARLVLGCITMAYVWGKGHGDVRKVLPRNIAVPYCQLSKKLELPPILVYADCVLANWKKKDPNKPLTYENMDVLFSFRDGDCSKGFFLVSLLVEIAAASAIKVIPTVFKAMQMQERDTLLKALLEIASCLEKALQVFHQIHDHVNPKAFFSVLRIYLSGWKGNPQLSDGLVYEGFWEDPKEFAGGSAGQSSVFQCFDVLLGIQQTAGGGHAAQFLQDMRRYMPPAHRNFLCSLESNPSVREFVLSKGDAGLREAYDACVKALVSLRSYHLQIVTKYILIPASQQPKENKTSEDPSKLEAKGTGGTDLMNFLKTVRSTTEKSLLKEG

For `COc1cccc(NC(=O)N2CC3(CC(Oc4ccnc5ccc(F)cc45)C3)C2)c1` [Example 4, N-(3-methoxyphenyl)-6-((6-fluoroquinolin-4-yl)oxy)-2-aza-spiro[3.3]heptan-2-carboxamide], the inhibition at 0.1 µM is 49%.

With `COc1ccc(NC(=O)N2CC3(CC(Oc4ccnc5ccc(F)cc45)C3)C2)cc1` [Example 5, N-(4-methoxyphenyl)-6-((6-fluoroquinolin-4-yl)oxy)-2-aza-spiro[3.3]heptan-2-carboxamide], the inhibition at 0.1 µM is 63%.

As to `O=C(c1ccc(Cl)cc1)N1CC2(CC(Oc3ccnc4ccc(F)cc34)C2)C1` [Example 6, (4-chlorophenyl)(6-((6-fluoroquinolin-4-yl)oxy)-2-aza-spiro[3.3]heptan-2-yl) methanone], the inhibition at 0.1 µM turned out to be 87% and the pEC50 was 7.44.

In the case of `O=C(/C=C/c1ccc(Cl)cc1)N1CC2(CC(Oc3ccnc4ccc(F)cc34)C2)C1` [Example 7, (E)-3-(4-chlorophenyl)-1-(6-((6-fluoroquinolin-4-yl)oxy)-2-aza-spiro[3.3]heptan-2-yl)prop-2-en-1-one], the inhibition at 0.1 µM came to 31%.

Turning to `COC/C=C/c1ccc(NC(=O)N2CC3(CC(Oc4ccnc5ccc(F)cc45)C3)C2)cc1` [Example 10], the inhibition at 0.1 µM came to 90%.

Turning to `O=C(CNc1ccccc1)N1CC2(CC(Oc3ccnc4ccc(F)cc34)C2)C1` [Example 11, 1-(6-((6-fluoroquinolin-4-yl)oxy)-2-aza-cyclo[3.3]heptan-2-yl)-2-(anilino)ethyl-1-one], the inhibition at 0.1 µM is 25%.

As for `O=C(NCc1ccc(Cl)cc1)N1CC2(CC(Oc3ccnc4ccc(F)cc34)C2)C1` [Example 15, N-(4-chlorobenzyl)-6-((6-fluoroquinolin-4-yl)oxy)-2-aza-spiro[3.3]heptan-2-carboxamide], the inhibition at 0.1 µM was 18%.

As to `O=C(Nc1ccc(F)cc1)N1CC2(CC(Oc3ccnc4ccc(F)cc34)C2)C1` [Example 16, N-(4-fluorophenyl)-6-((6-fluoroquinolin-4-yl)oxy)-2-aza-spiro[3.3]heptan-2-carboxamide], the inhibition at 0.1 µM turned out to be 85% and the pEC50 is 7.48.

For `O=C(Nc1ccc(Cl)cc1)N1CC2(CCC(Nc3ccnc4ccc(F)cc34)C2)C1` (centres unmarked) [Example 19], the inhibition at 0.1 µM came out at 61%.

In the case of `O=C(Nc1ccc(Cl)cc1)N1CC2(CC(Oc3ccnc4ccccc34)C2)C1` [Example 23, N-(4-chlorophenyl)-6-(quinolin-4-yloxy)-2-aza-spiro[3.3]heptan-2-carboxamide], the inhibition at 0.1 µM was determined as 74% and the pEC50 was 7.59.

Take `O=C(Nc1ccc(Cl)cc1)N1CC2(CC(Oc3cnc4ccccc4c3)C2)C1` [Example 26, N-(4-chlorophenyl)-6-(quinolin-3-yloxy)-2-aza-spiro[3.3]heptan-2-carboxamide]: the inhibition at 0.1 µM was determined as 15%.

For `O=C(Nc1ccc(Cl)cc1)N1CC2(CC(Oc3ncnc4ccccc34)C2)C1` [Example 29, N-(4-chlorophenyl)-6-(quinazolin-4-yloxy)-2-aza-spiro[3.3]heptan-2-carboxamide], the inhibition at 0.1 µM stood at 10%.

Turning to `O=C(Nc1ccc(F)cc1)N1CC2C(C1)C2Oc1ccnc2ccc(F)cc12` (centres unmarked) [Example 30, N-(4-fluorophenyl)-6-((6-fluoroquinolin-4-yl)oxy)-3-aza-cyclo[3.1.0]hexan-3-carboxamide], the inhibition at 0.1 µM was 11%.

`O=C(Nc1ccc(Cl)cc1)N1CC2C(C1)C2Oc1ccnc2ccc(F)cc12` (centres unmarked) [Example 31, N-(4-chlorophenyl)-6-((6-fluoroquinolin-4-yl)oxy)-3-aza-cyclo[3.1.0]hexan-3-carboxamide]: the inhibition at 0.1 µM turned out to be 46%.

As for `O=C(Nc1ccc2c(c1)CCO2)N1CC2(CC(Oc3ccnc4ccc(F)cc34)C2)C1` [Example 32, N-(2,3-dihydrobenzofuran-5-yl)-6-((6-fluoroquinolin-4-yl)oxy)-2-aza-spiro[3.3]heptan-2-carboxamide], the inhibition at 0.1 µM worked out at 44%.

For `O=C(Nc1ccc2c(c1)OCCO2)N1CC2(CC(Oc3ccnc4ccc(F)cc34)C2)C1` [Example 33, N-(2,3-dihydrobenzo[b][1,4]dioxin-6-yl)-6-((6-fluoroquinolin-4-yl)oxy)-2-aza-spiro[3.3]heptan-2-carboxamide], the inhibition at 0.1 µM is 10%.

As to `O=C(Nc1ccc(Cl)cc1)N1CC2(CC(Oc3nccc4ccccc34)C2)C1` [Example 36, N-(4-chlorophenyl)-6-(isoquinolin-1-yloxy)-2-aza-spiro[3.3]heptan-2-carboxamide], the inhibition at 0.1 µM is 26%.

Turning to `CC(C(=O)Nc1ccc(Cl)cc1)N1CC2(CC(Oc3ccnc4ccc(F)cc34)C2)C1` (centres unmarked) [Example 39, N-(4-chlorophenyl)-2-(6-((6-fluoroquinolin-4-yl)oxo)-2-aza-spiro[3.3]heptan-2-yl)propionamide], the inhibition at 0.1 µM came to 91% and the pEC50 is 7.70.

`CC(C(=O)NC1CCCCC1)N1CC2(CC(Oc3ccnc4ccc(F)cc34)C2)C1` (centres unmarked) [Example 40, N-cyclohexyl-2-(6-((6-fluoroquinolin-4-yl)oxo)-2-aza-spiro[3.3]heptan-2-yl)propionamide]: the inhibition at 0.1 µM was 19%.

With `CC(C(=O)Nc1cccnc1)N1CC2(CC(Oc3ccnc4ccc(F)cc34)C2)C1` (centres unmarked) [Example 41, 2-(6-((6-fluoroquinolin-4-yl)oxo)-2-aza-spiro[3.3]heptan-2-yl)-N-(pyridin-3-yl)propionamide], the inhibition at 0.1 µM came to 23%.

On to `CC(C(=O)Nc1ccc(Cl)cc1)N1CC2C(COc3ccnc4ccc(F)cc34)C2C1` (centres unmarked) [Example 46, N-(4-chlorophenyl)-2-(6-(((6-fluoroquinolin-4-yl)oxo)methyl)-3-aza-bicyclo[3.1.0]hexan-3-yl)propionamide], for which the inhibition at 0.1 µM was 49%.

On to `CC(C(=O)Nc1ccc(Cl)cc1)N1CC2C(C1)C2Oc1ccnc2ccc(F)cc12` (centres unmarked) [Example 49, N-(4-chlorophenyl)-2-(6-((6-fluoroquinolin-4-yl)oxo)-3-aza-bicyclo[3.1.0]hexan-3-yl)propionamide], for which the inhibition at 0.1 µM is 99% and the pEC50 is 8.30.

Consider `CC(C(=O)Nc1ccc(Cl)cc1)N1CC2(CC(Nc3ccnc4ccc(F)cc34)C2)C1` (centres unmarked) [Example 54, N-(4-chlorophenyl)-2-(6-((6-fluoroquinolin-4-yl)amino)-2-aza-spiro[3.3]heptan-2-yl)propionamide], for which the inhibition at 0.1 µM turned out to be 69%.

Take `CC(C(=O)Nc1ccc(Cl)cc1)N1CC2(CC(N(C)c3ccnc4ccc(F)cc34)C2)C1` (centres unmarked) [Example 59, N-(4-chloro)-2-(6-((6-fluoroquinolin-4-yl)(methyl)amino)-2-aza-spiro[3.3]heptan-2-yl)propionamide]: the inhibition at 0.1 µM was determined as 85% and the pEC50 is 7.60.

Consider `CC(C(=O)Nc1ccc(Cl)cc1)N1CCC2CN(c3ccnc4ccc(F)cc34)CC2C1` (centres unmarked) [Example 64, N-(4-chlorophenyl)-2-(2-(6-fluoroquinolin-4-yl)octahydro-5H-pyrrolo[3,4-c]pyridin-5-yl)propionamide], for which the inhibition at 0.1 µM was 96%.

As to `COc1cccc(NC(=O)C(C)N2CCC3CN(c4ccnc5ccc(F)cc45)CC3C2)c1` (centres unmarked) [Example 65, 2-(2-(6-fluoroquinolin-4-yl)octahydro-5H-pyrrolo[3,4-c]pyridin-5-yl)-N-(3-methoxyphenyl)propionamide], the inhibition at 0.1 µM was determined as 59%.

These data come from US12551478B2, “Quinoline derivative having indoleamine-2,3-dioxygenase inhibitory activity” (SHENZHEN CHIPSCREEN BIOSCIENCES CO., LTD., priority 2018, dated 2026).
